Source: ChEMBL document CHEMBL2029312, “The antibacterial activity of 4,4'-bipyridinium amphiphiles with conventional, bicephalic and gemini architectures” (Bioorg Med Chem Lett, 2012)

Legend:
[1] = test system: Escherichia coli; assay: Antibacterial activity against Escherichia coli ATCC 25922 after 72 hrs by broth microdilution method; type: functional
[2] = test system: Staphylococcus aureus; assay: Antibacterial activity against Staphylococcus aureus subsp. aureus ATCC 29213 after 72 hrs by broth microdilution method; type: functional
[3] = test system: Enterococcus faecalis; assay: Antibacterial activity against Enterococcus faecalis ATCC 29212 after 72 hrs by broth microdilution method; type: functional
[4] = test system: Pseudomonas aeruginosa; assay: Antibacterial activity against Pseudomonas aeruginosa Boston 41501 ATCC 27853 after 72 hrs by broth microdilution method; type: functional
[5] = Solubility of the compound in water; type: physicochemical; details: buffer
[6] = test system: Enterococcus faecalis; assay: Ratio of benzalkonium chloride MIC to compound MIC for Enterococcus faecalis ATCC 29212; type: functional
[7] = test system: Pseudomonas aeruginosa; assay: Ratio of benzalkonium chloride MIC to compound MIC for Pseudomonas aeruginosa Boston 41501 ATCC 27853; type: functional
[8] = test system: Staphylococcus aureus; assay: Ratio of benzalkonium chloride MIC to compound MIC for Staphylococcus aureus subsp. aureus ATCC 29213; type: functional
[9] = test system: Escherichia coli; assay: Ratio of benzalkonium chloride MIC to compound MIC for Escherichia coli ATCC 25922; type: functional
[10] = Escherichia coli, ATCC 25922, 72 h, read-out: MIC
[11] = Staphylococcus aureus, ATCC 29213, 72 h, read-out: MIC
[12] = Enterococcus faecalis, ATCC 29212, 72 h, read-out: MIC
[13] = Pseudomonas aeruginosa, Boston 41501 ATCC 27853, 72 h, read-out: MIC

Row | MIC [1] [µM] | MIC [2] [µM] | MIC [3] [µM] | MIC [4] [µM] | solubility [5] | MIC [1, 10] [µM] | MIC [2, 11] [µM] | MIC [3, 12] [µM] | MIC [4, 13] [µM] | SMILES | Ratio [6] | Ratio [7] | Ratio [8] | Ratio [9]
1 | 8 | 2 | 4 | 63 | – | – | – | – | – | CCCCCCCCCC[n+]1ccc(-c2cc[n+](CCCCCCCCCC)cc2)cc1.[Cl-].[Cl-] | – | – | – | –
2 | 4 | 2 | 4 | 16 | – | – | – | – | – | CCCCCCCCCCCC[n+]1ccc(-c2cc[n+](CCCCCCCCCCCC)cc2)cc1.[Cl-].[Cl-] | – | – | – | –
3 | 16 | 8 | 16 | 31 | Insoluble | – | – | – | – | CCCCCCCCCCCC[n+]1ccc(-c2cc[n+](CCCCCCCCCCCC)cc2)cc1.[I-].[I-] | – | – | – | –
4 | >250 | >250 | >250 | >250 | Insoluble | – | – | – | – | CCCCCCCCCCCCCCCC[n+]1ccc(-c2cc[n+](CCCCCCCCCCCCCCCC)cc2)cc1.[Cl-].[Cl-] | – | – | – | –
5 | >250 | >250 | >250 | >250 | Insoluble | – | – | – | – | CCCCCCCCCCCCCCCC[n+]1ccc(-c2cc[n+](CCCCCCCCCCCCCCCC)cc2)cc1.[I-].[I-] | – | – | – | –
6 | – | – | – | – | – | 2 | 2 | 2 | 8 | CCCCCCCCCCCC[n+]1ccc(-c2cc[n+](CCCCCCCCCC)cc2)cc1 | – | – | – | –
7 | – | – | – | – | Insoluble | 125 | 16 | 31 | > 250 | CCCCCCCCCCCCCCCCCCCC[n+]1ccc(-c2cc[n+](C)cc2)cc1.[Br-].[I-] | – | – | – | –
8 | – | – | – | – | – | 31 | 8 | 31 | 125 | CCCCCCCCCCCCCCCCCC[n+]1ccc(-c2cc[n+](CC)cc2)cc1 | – | – | – | –
9 | – | – | – | – | Insoluble | 31 | 8 | 31 | 63 | CCCCCCCCCCCCCCCCCC[n+]1ccc(-c2cc[n+](C)cc2)cc1.[Br-].[I-] | – | – | – | –
10 | – | – | – | – | Insoluble | 63 | 8 | 16 | > 250 | CCCCCCCCCCCCCCCC[n+]1ccc(-c2ccncc2)cc1.[Br-] | – | – | – | –
11 | – | – | – | – | – | 31 | 8 | 16 | 125 | CCCCCCCCCCCCCC[n+]1ccc(-c2ccncc2)cc1 | – | – | – | –
12 | – | – | – | – | – | 63 | 16 | 63 | > 250 | CCCCCCCCCCCC[n+]1ccc(-c2ccncc2)cc1 | – | – | – | –
13 | – | – | – | – | Insoluble | > 250 | > 250 | > 250 | > 250 | CCCCCCCCCCCCCCCCCC[n+]1ccc(-c2cc[n+](CCCCCCCCCCCCCCCCCC)cc2)cc1.[Br-].[Br-] | – | – | – | –
14 | – | – | – | – | Insoluble | > 250 | 250 | > 250 | > 250 | CCCCCCCCCCCCCCCC[n+]1ccc(-c2cc[n+](CCCCCCCCCCCCCCCC)cc2)cc1.[Br-].[Br-] | – | – | – | –
15 | – | – | – | – | Insoluble | 250 | 16 | 31 | > 250 | CCCCCCCCCCCCCC[n+]1ccc(-c2cc[n+](CCCCCCCCCCCCCC)cc2)cc1.[Br-].[Br-] | – | – | – | –
16 | – | – | – | – | Insoluble | 16 | 8 | 8 | 250 | CCCCCCCCCCCCC[n+]1ccc(-c2cc[n+](CCCCCCCCCCCCC)cc2)cc1.[Br-].[Br-] | – | – | – | –
17 | – | – | – | – | – | 8 | 2 | 4 | 63 | CCCCCCCCCC[n+]1ccc(-c2cc[n+](CCCCCCCCCC)cc2)cc1 | – | – | – | –

The next lines start with the compound.

Row | SMILES | MIC [1] [µM] | MIC [2] [µM] | MIC [3] [µM] | MIC [4] [µM] | solubility [5] | MIC [1, 10] [µM] | MIC [2, 11] [µM] | MIC [3, 12] [µM] | MIC [4, 13] [µM] | Ratio [6] | Ratio [7] | Ratio [8] | Ratio [9]
18 | CCCCCCCCCC[n+]1ccc(-c2cc[n+](CCCCCCCCCC)cc2)cc1.[I-].[I-] | 8 | 2 | 4 | 63 | Insoluble | – | – | – | – | – | – | – | –
19 | CCCCCCCCCCC[n+]1ccc(-c2cc[n+](CCCCCCCCCCC)cc2)cc1.[Cl-].[Cl-] | 2 | 2 | 2 | 8 | – | – | – | – | – | – | – | – | –
20 | CCCCCCCCCCC[n+]1ccc(-c2cc[n+](CCCCCCCCCCC)cc2)cc1.[I-].[I-] | 8 | 4 | 8 | 63 | Insoluble | – | – | – | – | – | – | – | –
21 | CCCCCCCCCCCCCC[n+]1ccc(-c2cc[n+](CCCCCCCC)cc2)cc1 | – | – | – | – | – | 2 | 2 | 2 | 16 | – | – | – | –
22 | CCCCCCCCCCCCCCCC[n+]1ccc(-c2cc[n+](CCCCCC)cc2)cc1 | – | – | – | – | – | 8 | 2 | 8 | 31 | – | – | – | –
23 | CCCCCCCCCCCCCCCCCC[n+]1ccc(-c2cc[n+](CCCC)cc2)cc1 | – | – | – | – | – | 31 | 8 | 31 | 125 | – | – | – | –
24 | CCCCCCCCCCCCCCCCCCCC[n+]1ccc(-c2cc[n+](CC)cc2)cc1 | – | – | – | – | – | 125 | 16 | 31 | > 250 | – | – | – | –
25 | CCCCCCCCCCCCCCCCCCCC[n+]1ccc(-c2ccncc2)cc1.[Br-] | – | – | – | – | Insoluble | > 250 | > 250 | > 250 | > 250 | – | – | – | –
26 | CCCCCCCCCCCCCCCCCC[n+]1ccc(-c2ccncc2)cc1.[Br-] | – | – | – | – | Insoluble | > 250 | 16 | 31 | > 250 | – | – | – | –
27 | CCCCCCCCCCCCCCCC[n+]1ccc(-c2cc[n+](CC)cc2)cc1.[Br-].[Br-] | – | – | – | – | Insoluble | 63 | 16 | 63 | 250 | – | – | – | –
28 | CCCCCCCCCCCCCCCC[n+]1ccc(-c2cc[n+](C)cc2)cc1.[Br-].[I-] | – | – | – | – | Insoluble | 31 | 4 | 31 | 125 | – | – | – | –
29 | CCCCCCCCCCCCCC[n+]1ccc(-c2cc[n+](CC)cc2)cc1 | – | – | – | – | – | 63 | 8 | 31 | 250 | – | – | – | –
30 | CCCCCCCCCCCCCC[n+]1ccc(-c2cc[n+](C)cc2)cc1.[Br-].[I-] | – | – | – | – | Insoluble | 63 | 4 | 31 | 125 | – | – | – | –
31 | CCCCCCCCCCCC[n+]1ccc(-c2cc[n+](CC)cc2)cc1 | – | – | – | – | – | 250 | 63 | 250 | > 250 | – | – | – | –
32 | CCCCCCCCCCCC[n+]1ccc(-c2cc[n+](C)cc2)cc1.[Br-].[I-] | – | – | – | – | Insoluble | 125 | 31 | 63 | 250 | – | – | – | –
33 | CCCCCCCCCCCC[n+]1ccc(-c2cc[n+](CCCCCCCCCCCC)cc2)cc1.[Br-].[Br-] | 4 | 2 | 4 | – | – | – | – | – | 31 | – | – | – | –
34 | CCCCCCCCCCC[n+]1ccc(-c2cc[n+](CCCCCCCCCCC)cc2)cc1.[Br-].[Br-] | 2 | – | 2 | 16 | – | – | 2 | – | – | 4 | 4 | 4 | 4
35 | CCCCCCCC[n+]1ccc(-c2cc[n+](CCCCCCCC)cc2)cc1 | – | – | – | – | – | > 250 | 125 | 250 | > 250 | – | – | – | –
36 | C[n+]1ccc(-c2cc[n+](C)cc2)cc1 | – | – | – | – | – | > 250 | > 250 | > 250 | > 250 | – | – | – | –
